Measurements: PubChem BioAssay AID330 (DTP/NCI, 2004)
Where “and” joins values, the source holds several entries; their conditions need not be identical. Equal entries are not always repeated. Inconclusive results and toxic doses are left out. The calls were made as follows: active = survival T/C of 150% or more; inactive = T/C below 125% in these data.

System: P388 leukemia ip, CD2F1 mice, survival T/C
Test: NCI In Vivo Anticancer Drug Screen. Data for tumor model P388 Leukemia (intraperitoneal) in CD2F1 (CDF1) mice
Settings: endpoint: median survival time, higher = longer survival
Method in brief: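 Mice carrying the transplanted tumor received test compound or vehicle. Survival was recorded in each group, and the value is the treated-group measurement divided by that of the vehicle-treated control group.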

[1] = dose: 50.0 mg/kg/injection, schedule: Q01DX009 (ip), vehicle: saline with Tween-80
[2] = dose: 50.0 mg/kg/injection, schedule: Q01DX009 (ip), vehicle: Klucel (hydroxypropylcellulose) (HPC)
[3] = dose: 100.0 mg/kg/injection, schedule: Q01DX009 (ip), vehicle: Klucel (hydroxypropylcellulose) (HPC)
[4] = dose: 200.0 mg/kg/injection, schedule: Q01DX009 (ip), vehicle: Klucel (hydroxypropylcellulose) (HPC)
[5] = dose: 50.0 mg/kg/injection, schedule: Q01DX009 (ip), vehicle: saline
[6] = dose: 100.0 mg/kg/injection, schedule: Q01DX009 (ip), vehicle: saline
[7] = dose: 50.0 mg/kg/injection, schedule: Q04DX003 (ip), vehicle: Klucel (hydroxypropylcellulose) (HPC)

Measured: T/C

O=[N+]([O-])c1cccn2nc(C3OC(CO)C(O)C3O)nc12 (stereo not drawn)
inactive: dose: 6.25 mg/kg/injection, schedule: Q01DX009 (ip), vehicle: water 109 % of control | dose: 12.5 mg/kg/injection, schedule: Q01DX009 (ip), vehicle: water 104 % of control | dose: 25.0 mg/kg/injection, schedule: Q01DX009 (ip), vehicle: water 113 % of control | dose: 50.0 mg/kg/injection, schedule: Q01DX009 (ip), vehicle: water 98 % of control | dose: 100.0 mg/kg/injection, schedule: Q01DX009 (ip), vehicle: water 109 % of control

COc1cc(CCCNC(C)=O)cc(OC)c1OC
inactive: dose: 25.0 mg/kg/injection, schedule: Q01DX005 (ip), vehicle: water 105 % of control | dose: 50.0 mg/kg/injection, schedule: Q01DX005 (ip), vehicle: water 98 % of control | dose: 100.0 mg/kg/injection, schedule: Q01DX005 (ip), vehicle: water 96 % of control | dose: 200.0 mg/kg/injection, schedule: Q01DX005 (ip), vehicle: water 98 % of control

CCOC(=O)C1CSC2(CCCC2)N1 (stereo not drawn)
inactive: dose: 100.0 mg/kg/injection, schedule: Q04DX002 (ip), vehicle: saline with Tween-80 110 % of control | dose: 200.0 mg/kg/injection, schedule: Q04DX002 (ip), vehicle: saline with Tween-80 109 % of control | dose: 400.0 mg/kg/injection, schedule: Q04DX002 (ip), vehicle: saline with Tween-80 100 % of control

Cc1ccc(S(=O)(=O)NNC(=O)CCC(=O)NS(C)(=O)=O)cc1
inactive: dose: 100.0 mg/kg/injection, schedule: Q01DX001 (ip), vehicle: saline with Tween-80 100 % of control | dose: 200.0 mg/kg/injection, schedule: Q01DX001 (ip), vehicle: saline with Tween-80 97 % of control | dose: 400.0 mg/kg/injection, schedule: Q01DX001 (ip), vehicle: saline with Tween-80 93 % of control

O=C(OC1CCC2(CC1)SCCS2)c1ccccc1
inactive: dose: 100.0 mg/kg/injection, schedule: Q04DX003 (ip), vehicle: saline with Tween-80 100 % of control | dose: 200.0 mg/kg/injection, schedule: Q04DX003 (ip), vehicle: saline with Tween-80 100 % of control | dose: 400.0 mg/kg/injection, schedule: Q04DX003 (ip), vehicle: saline with Tween-80 104 % of control

CC(C)(CO)NCC(O)CS(=O)(=O)O (stereo not drawn)
inactive: dose: 60.0 mg/kg/injection, schedule: Q01DX005 (ip), vehicle: saline 100 % of control | dose: 120.0 mg/kg/injection, schedule: Q01DX005 (ip), vehicle: saline 100 % of control | dose: 240.0 mg/kg/injection, schedule: Q01DX005 (ip), vehicle: saline 101 % of control

COC(=O)OC(C#N)c1ccccc1[N+](=O)[O-] (stereo not drawn)
inactive: dose: 1.56 mg/kg/injection, schedule: Q01DX009 (ip), vehicle: saline 88 % of control | dose: 3.12 mg/kg/injection, schedule: Q01DX009 (ip), vehicle: saline 98 % of control | dose: 6.25 mg/kg/injection, schedule: Q01DX009 (ip), vehicle: saline 105 % of control | dose: 6.25 mg/kg/injection, schedule: Q01DX009 (ip), vehicle: suspension in saline 88 % of control | dose: 200.0 mg/kg/injection, schedule: Q01DX009 (ip), vehicle: saline 94 % of control

NC1=NCc2c(sc3c2CCCC3)N1
inactive: dose: 12.5 mg/kg/injection, schedule: Q01DX005 (ip), vehicle: Klucel (hydroxypropylcellulose) (HPC) 104 % of control | dose: 25.0 mg/kg/injection, schedule: Q01DX005 (ip), vehicle: Klucel (hydroxypropylcellulose) (HPC) 104 % of control | dose: 50.0 mg/kg/injection, schedule: Q01DX005 (ip), vehicle: Klucel (hydroxypropylcellulose) (HPC) 98 % of control and 103 % of control

CCCCN(CCCC)C(C)C(=O)c1ccc2cc(Br)c3ccccc3c2c1 (stereo not drawn)
inactive: dose: 12.5 mg/kg/injection, schedule: Q01DX005 (ip), vehicle: saline with Tween-80 110 % of control | dose: 25.0 mg/kg/injection, schedule: Q01DX005 (ip), vehicle: saline with Tween-80 101 % of control | dose: 50.0 mg/kg/injection, schedule: Q01DX005 (ip), vehicle: saline with Tween-80 99 % of control and 100 % of control | dose: 100.0 mg/kg/injection, schedule: Q01DX005 (ip), vehicle: saline with Tween-80 107 % of control | dose: 200.0 mg/kg/injection, schedule: Q01DX005 (ip), vehicle: saline with Tween-80 119 % of control

Cc1cc(C(C)(CC(C)C)c2ccc(O)c(C)c2)ccc1O
inactive: dose: 25.0 mg/kg/injection, schedule: Q01DX009 (ip), vehicle: saline with Tween-80 116 % of control | [1] 98 % of control

O=c1[nH]c2ccccc2[nH]1
inactive: [2] 114 % of control and 98 % of control | dose: 50.0 mg/kg/injection, schedule: Q01DX009 (ip), vehicle: suspension in saline 99 % of control and 90 % of control | [3] 107 % of control and 98 % of control | dose: 100.0 mg/kg/injection, schedule: Q01DX009 (ip), vehicle: suspension in saline 100 % of control | [4] 117 % of control | dose: 200.0 mg/kg/injection, schedule: Q01DX009 (ip), vehicle: suspension in saline 101 % of control and 96 % of control | dose: 400.0 mg/kg/injection, schedule: Q01DX009 (ip), vehicle: suspension in saline 101 % of control and 88 % of control

NNC(=O)COCC(=O)NN
inactive: dose: 25.0 mg/kg/injection, schedule: Q01DX009 (ip), vehicle: Klucel (hydroxypropylcellulose) (HPC) 106 % of control | [2] 100 % of control | [3] 104 % of control | [4] 100 % of control

Cc1c2ccncc2cc2c1[nH]c1ccccc12
active: dose: 50.0 mg/kg/injection, schedule: Q04DX003 (ip), vehicle: saline with Tween-80 160 % of control | dose: 66.0 mg/kg/injection, schedule: Q04DX003 (ip), vehicle: saline with Tween-80 209 % of control

O=C1NN=C(c2ccc(Br)cc2)CS1
inactive: [1] 92 % of control and 97 % of control | dose: 100.0 mg/kg/injection, schedule: Q01DX009 (ip), vehicle: saline with Tween-80 101 % of control and 87 % of control | dose: 200.0 mg/kg/injection, schedule: Q01DX009 (ip), vehicle: saline with Tween-80 113 % of control and 120 % of control

NCCN(Cc1ccccc1)C1CC1
inactive: [5] 98 % of control | [6] 91 % of control

O=C1CC([Se]c2ccccc2)C(=O)N1 (stereo not drawn)
inactive: dose: 6.25 mg/kg/injection, schedule: Q04DX003 (ip), vehicle: Klucel (hydroxypropylcellulose) (HPC) 99 % of control | dose: 12.5 mg/kg/injection, schedule: Q04DX003 (ip), vehicle: Klucel (hydroxypropylcellulose) (HPC) 102 % of control and 104 % of control | dose: 25.0 mg/kg/injection, schedule: Q04DX003 (ip), vehicle: Klucel (hydroxypropylcellulose) (HPC) 100 % of control and 107 % of control | [7] 100 % of control and 105 % of control

O=C1C2(CCCC13N=NCC3c1ccccc1)N=NCC2c1ccccc1 (stereo not drawn)
inactive: dose: 60.0 mg/kg/injection, schedule: Q01DX005 (ip), vehicle: Klucel (hydroxypropylcellulose) (HPC) 93 % of control | dose: 120.0 mg/kg/injection, schedule: Q01DX005 (ip), vehicle: Klucel (hydroxypropylcellulose) (HPC) 88 % of control | dose: 240.0 mg/kg/injection, schedule: Q01DX005 (ip), vehicle: Klucel (hydroxypropylcellulose) (HPC) 93 % of control

CC(C)c1ccc(/C=C(/NC(=O)c2ccccc2)c2nc3ccccc3s2)cc1
inactive: dose: 60.0 mg/kg/injection, schedule: Q01DX005 (ip), vehicle: saline with Tween-80 104 % of control | dose: 120.0 mg/kg/injection, schedule: Q01DX005 (ip), vehicle: saline with Tween-80 111 % of control | dose: 240.0 mg/kg/injection, schedule: Q01DX005 (ip), vehicle: saline with Tween-80 118 % of control

O=Cc1c(-c2ccccc2)nc2sccn12
inactive: [7] 96 % of control | dose: 100.0 mg/kg/injection, schedule: Q01DX001 (ip), vehicle: Klucel (hydroxypropylcellulose) (HPC) 100 % of control | dose: 100.0 mg/kg/injection, schedule: Q04DX003 (ip), vehicle: Klucel (hydroxypropylcellulose) (HPC) 96 % of control | dose: 200.0 mg/kg/injection, schedule: Q01DX001 (ip), vehicle: Klucel (hydroxypropylcellulose) (HPC) 100 % of control | dose: 200.0 mg/kg/injection, schedule: Q04DX003 (ip), vehicle: Klucel (hydroxypropylcellulose) (HPC) 91 % of control | dose: 400.0 mg/kg/injection, schedule: Q01DX001 (ip), vehicle: Klucel (hydroxypropylcellulose) (HPC) 99 % of control

CC(C)CC#N
inactive: dose: 25.0 mg/kg/injection, schedule: Q01DX009 (ip), vehicle: saline 90 % of control | [5] 100 % of control | [6] 100 % of control
